Tests used:
[1] = system: ornithine decarboxylase (ODC); conditions: general statement, TPA-induced ODC; cited from earlier work
[2] = system: ornithine decarboxylase (ODC); experiment: inhibition of TPA induction of ornithine decarboxylase (ODC); format: in vivo
From the text: The retinoid-like activity of these compounds is confirmed through the classic measure of retinoic acid activity involving the effects of retinoic acid on ornithine decarboxylase. The original work on the correlation between retinoic acid and decrease in cell proliferation was done by Verma & Boutwell, Cancer Research, 1977, 37,2196-2201. That reference discloses that ornithine decarboxylase (ODC) activity increased precedent to polyamine biosynthesis. It has been established elsewhere that increases in polyamine synthesis can be correlated or associated with cellular proliferation. Thus, if ODC activity could be inhibited, cell hyperproliferation could be modulated. Although all causes for ODC activity increases are unknown, it is known that 12-0-tetradecanoylphorbol-13-acetate (TPA) induces ODC activity.

Structure (SMILES) | inhibition of TPA induction of ODC activity [1] | IC80 [2]
CC1=C(/C=C/C(C)=C/C=C/C(C)=C/C(=O)O)C(C)(C)CCC1 [Retinoic acid] | inhibits this induction of ODC activity by TPA | –
CC1(C)CCCC2(C)OC12C#Cc1ccc2cc(C(=O)O)ccc2c1 (racemic) [Compound 1, 6-[2-(1,2-epoxy-2,6,6-trimethyl-cyclohexan-1-yl)-ethynyl]-2-naphthoic acid] | – | 30.5 nM

— patent US5451605A, “1,2-epoxycyclohexanyl and bicyclic aromatic substituted ethyne compounds having retinoid-like biological activity” (Allergan, Inc., priority 1993, dated 1995)
